Measurements from paper PMC9146163, “Novel Au Carbene Complexes as Promising Multi-Target Agents in Breast Cancer Treatment” (Pharmaceuticals, 2022).
Where two headings read alike, the source gives them in different places.

Experiments:
Hek-293 cells [1] = assay: MTT assay, normal Hek-293; assay type: cell-based, human; conditions: read-out: IC50 Hek-293
Experimental: (§1) The five employed cell lines were purchased from American Type Culture Collection (ATCC, Manassas, VA, USA) and maintained as already reported. […] SkBr3 cells were maintained in DMEM high glucose, supplemented with 10% FBS and 100 μg/mL penicillin/streptomycin.
(§2) MTT assays [Sigma Aldrich (St.Louis, MO, USA)] were used in order to determine the in vitro anticancer activities of all the target compounds, as already reported.The compounds were tested at different concentrations (0.1-1-10-20-40 µM) for 72 h. Results are represented as percent (%) of basal and the IC50 values were calculated using GraphPad Prism 9 (GraphPad Software, La Jolla, CA, USA).

MCF-7 cells = assay: MTT assay, MCF-7; assay type: cell-based, human; conditions: read-out: IC50 MCF-7
Experimental: (§3) The five employed cell lines were purchased from American Type Culture Collection (ATCC, Manassas, VA, USA) and maintained as already reported. MCF-7, MDA-MB-231, MCF-10A and Hek-293 were cultured, as indicated by Iacopetta et al.. SkBr3 cells were maintained in DMEM high glucose, supplemented with 10% FBS and 100 μg/mL penicillin/streptomycin.
as §2

vimentin in MCF-7 cells = assay: Vimentin expression (immunofluorescence), MCF-7; assay type: cell-based, human; conditions: fluorescence quantification; IC50 value, 24 h
Experimental: (§4) The MitoTracker Deep Red FM probe (MitoTracker Mitochondrion-Selective Probes, Invitrogen European Headquarters, Paisley, PA4 9RF, UK) was used for mitochondrial staining, as previously described. For immunofluorescence analysis, the cells were seeded and further processed, as reported by Iacopetta et al.. The primary antibodies used were: rabbit anti-β-Actin and vimentin (Santa Cruz Biotechnology, Dallas, TX, USA), mouse anti cytochrome c and NF-κB p65 (Abcam, Cambridge, UK), diluted 1:100 in bovine serum albumin (BSA) 2% overnight at 4 °C. The secondary antibodies were: Alexa Fluor® 488 conjugate goat-anti-rabbit and Alexa Fluor® 568 conjugate goat-anti-mouse (Thermo Fisher Scientific, MA, USA), diluted 1:500 and incubated for 2h at 37 °C. DAPI 0.2 μg/mL (Sigma Aldrich, Milan, Italy) was used for nuclei staining. […] All the images were acquired and processed using the LAS-X software.
Protein lysates underwent the SDS-PAGE process, as already defined. Then lysates were resolved on a 7.5% SDS polyacrylamide gel, transferred to a nitrocellulose membrane, and probed with antibodies against vimentin and GAPDH (Santa Cruz Biotechnology, Dallas, TX, USA). […] The images are representative of three independent experiments.

MCF-10A cells = assay: MTT assay, normal MCF-10A; assay type: cell-based, human; conditions: 72 h, read-out: IC50 MCF-10A
Experimental: as §1
[…] Results are represented as percent (%) of basal and the IC50 values were calculated using GraphPad Prism 9 (GraphPad Software, La Jolla, CA, USA).

MDA-MB-231 cells = assay: MTT assay, MDA-MB-231; assay type: cell-based, human; conditions: read-out: IC50 MDA-MB-231
Experimental: as §3, §2

SkBr3 cells = assay: MTT assay, SkBr3; assay type: cell-based, human; conditions: read-out: IC50 SkBr3
Experimental: as §3, §2

[2] = LogP determination (1-octanol/water, UV/vis); assay type: physicochemical; conditions: log[complex]oct/[complex]H2O, 55 μM, UV-Vis
Experimental: The logarithm of the partition coefficient (LogP) was evaluated by making a slight modification to the procedure reported in ref. [79]. Equal volumes of 1-octanol and water (distilled after milli-Q purification) were stirred for 20 h at room temperature. Then, they were separated to give 1-octanol-saturated water and water-saturated 1-octanol. Six (10, 20, 40, 50, 60 and 100 μM) standard concentrations of the compounds were prepared from the water-saturated 1-octanol. Analysis using UV/vis spectroscopy was used to obtain a calibration curve of absorbance vs. concentration. For each complex, a solution was prepared in the water-saturated 1-octanol (55 μM) and an equal volume of 1-octanol-saturated water was added. The solutions (biphasic) were mixed for 15 min and then centrifuged for 1h at 6500 rpm to allow separation.
Concentration in water-saturated 1-octanol was determined by UV-Vis spectroscopy. Reported LogP is defined as log[complex]oct/[complex]H2O.

Hek-293 cells [3] = assay: MTT assay, normal Hek-293; assay type: cell-based, human; conditions: up to the concentration of 200 μM
[4] = test system: β-actin in MDA-MB-231 cells; assay: Actin immunofluorescence, MDA-MB-231; assay type: cell-based, human; conditions: 24 h; compound 1 at its IC50 value, LA 0.1 µM
Experimental: as §4

[5] = target: T1, Labeled Rabbit Muscle Actin (Oryctolagus cuniculus, UniProt P68135); assay: In vitro actin polymerization assay; assay type: biochemical; conditions: 5 µM; for actin polymerization curve, final value: end of 1 h kinetic read, control about 37.000 RFU
T1 construct: purchased Abcam (Actin Polymerization/Depolymerization Assay Kit)
Experimental: (§5) The ability of the tested compounds to interfere with the actin polymerization and depolymerization reaction was measured using an Actin Polymerization/Depolymerization Assay Kit purchased from Abcam, following the manufacturer’s instructions. […] For the polymerization assay, reconstituted actin was mixed with supplemented Buffer G and samples in a white 96-well plate and then the polymerization reaction was induced with the addition of the Buffer P supplemented with 10 mM ATP. The solution was mixed and the data acquisition started. For the Actin Depolymerization Assay, supplemented Buffers P and G were mixed and incubated in a white 96-well plate at room temperature for one hour to polymerize the actin, protected from light. Then samples were added and the data acquisition started. Latrunculin A and Cytochalasin B were used as control molecules at a concentration of 5 μM. For both the assays, the assembly of actin filaments was determined by measuring the fluorescence (Ex/Em: 365/410 nm) in kinetic mode for 1 h at room temperature using a microplate reader.

β-actin in MCF-10A cells = assay: Actin immunofluorescence, MCF-10A; assay type: cell-based, human; conditions: 24 h; compounds at their IC50 value, LA 0.1 μM
Experimental: as §4
E: Figure S1. Actin immunofluorescence studies in MCF-10A cells […]
Figure S1. Actin immunofluorescence studies. M CF-10A cells were treat ed with compounds 1 and […]
treatment, the cells were methanol fixed, incubated with primary and secondary antibodies, stained with DAPI and observed and imaged under the inverted fluorescence microscope at 20x […]
A: nuclear stain with DAPI (λex/λem = 350/460 nm); Panels B: β-actin ([…]); Panels C: show a merge. R epresentative fields are shown.

[6] = target: T1, Labeled Rabbit Muscle Actin; assay: In vitro actin depolymerization assay; assay type: biochemical; conditions: for effect on already polymerized actin (in words): 5 µM
Experimental: as §5

β-actin in MCF-7 cells = assay: Actin immunofluorescence, MCF-7; assay type: cell-based, human; conditions: 24 h; compound 6 at its IC50 value, LA 0.1 µM
Experimental: as §4

[7] = MTT, 72 h, normal cells, mean ± SD

Compound | IC50 (Hek-293 cells [1]; [7]) [µM] | IC50 (MCF-7 cells; MTT, 72 h, mean ± SD) [µM] | IC50 (MCF-10A cells; MTT, normal cells, mean ± SD) [µM] | IC50 (MDA-MB-231 cells; MTT, 72 h, mean ± SD) [µM] | IC50 (SkBr3 cells; MTT, 72 h, mean ± SD) [µM] | LogP [2] | other results
CC(=O)[O-].Cn1ccn(CC([O-])c2ccccc2)[c]1=[Au+]=[c]1n(C)ccn1CC([O-])c1ccccc1.[Na+].[Na+] (centres unmarked) [Compound 2] | > 200 | 30.6 ± 0.7 | 39.6 ± 0.5 | 22.6 ± 1.1 | 38.4 ± 0.4 | 0.047 | reduction of vimentin expression with respect to the control, MCF-7 (vimentin in MCF-7 cells): two times lower
COC(Cn1ccn(C)[c]1=[Au+]=[c]1n(C)ccn1CC(OC)c1ccccc1)c1ccccc1.[Cl-] (centres unmarked) [Compound 3] | 39 ± 0.9 | 3.3 ± 1.4 | 13.3 ± 1 | 2.2 ± 1.1 | 10.9 ± 0.7 | 0.62 | 
N.N.[Cl][Pt][Cl] [Cisplatin, reference compound] | 16.3 ± 0.9 | 35.8 ± 0.7 | 81.3 ± 0.6 | 28.7 ± 0.4 | 7.4 ± 0.9 |  | 
C/C1=C/C(=O)O[C@@H]2C[C@@H](CC[C@H](C)/C=C\C=C\CC1)O[C@@](O)([C@@H]1CSC(=O)N1)C2 [Latrunculin A, reference compound] |  |  |  |  |  |  | cytotoxicity against the normal Hek-293 cells (in words) (Hek-293 cells [3]): drastically reduced; actin organization in MDA-MB-231 cells [4]: complete disorganization of the actin system; actin polymerization curve, value 14 min after the reaction started [5]: about 12.000 RFU; effect on actin polymerization (in words) [5]: impeded the actin polymerization; actin polymerization curve, final value [5]: about 10.000 RFU; IC50 (Hek-293 cells [1]; Homo sapiens, HEK293, 72 h): 0.093 µM; actin organization in MCF-10A cells (β-actin in MCF-10A cells): aberrant actin arrangement; IC50 (MCF-7 cells; Homo sapiens, MCF7, 72 h): 0.14 µM; effect on already polymerized actin (in words) [6]: triggered the actin depolymerization; actin depolymerization curve, end value ([6]; 5 µM added to actin polymerized for one hour, followed for another hour): 14.000 RFU; actin depolymerization curve, value after the net decrease at about seven minutes ([6]; 5 µM added to actin polymerized for one hour, initial value around 28.000 RFU): about 16.800 RFU; IC50 (MCF-10A cells; Homo sapiens, MCF-10A): 0.045 µM; actin organization in MCF-7 cells (β-actin in MCF-7 cells): complete disorganization of the actin system; IC50 (MDA-MB-231 cells; Homo sapiens, MDA-MB-231, 72 h): 0.024 µM; IC50 (SkBr3 cells; Homo sapiens, SK-BR-3, 72 h): 0.7 ± 1.2 µM
CC(=O)[O-].Cn1ccn(CC(O)c2ccccc2)[c]1=[Au+]=[c]1n(C)ccn1CC(O)c1ccccc1 (centres unmarked) [Compound 5] | > 200 | 21.9 ± 0.5 | 27.8 ± 0.7 | 58.5 ± 1.2 | 58.9 ± 1.2 | 0.12 | 
CC(=O)[O-].COC(Cn1ccn(C)[c]1=[Au+]=[c]1n(C)ccn1CC(OC)c1ccccc1)c1ccccc1 (centres unmarked) [Compound 4, Bis [(N-methyl, N’(2-methoxy-2-phenyl-ethyl)imidazole-2-ylidine]gold(I)] acetate] | 7.6 ± 1 | 9.4 ± 0.6 | 5.2 ± 0.9 | 3 ± 0.7 | 2.6 ± 0.7 |  | 
C=C1[C@@H](C)[C@H]2[C@H](Cc3ccccc3)NC(=O)[C@]23OC(=O)/C=C/[C@H](O)CCC[C@@H](C)C/C=C/[C@H]3[C@@H]1O [cytochalasin B] |  |  |  |  |  |  | effect on actin polymerization (in words) [5]: impeded the actin polymerization; actin polymerization curve, final value [5]: ended almost at the same RFU value of the beginning; effect on already polymerized actin (in words) [6]: did not produce a significant decrease
